From article PMC4577729, “7-(Pyrazol-4-yl)-3H-imidazo[4,5-b]pyridine-based derivatives for kinase inhibition: Co-crystallisation studies with Aurora-A reveal distinct differences in the orientation of the pyrazole N1-substituent” (Bioorganic & Medicinal Chemistry Letters, 2015)

Tests used:
Aurora A = biological target: T1, Aurora A (Homo sapiens, UniProt O14965); assay: Aurora-A microfluidic kinase assay; assay type: biochemical; conditions: biochemical; mean of two determinations or mean ±SD for n > 2
T1 sequence (O14965 1-403): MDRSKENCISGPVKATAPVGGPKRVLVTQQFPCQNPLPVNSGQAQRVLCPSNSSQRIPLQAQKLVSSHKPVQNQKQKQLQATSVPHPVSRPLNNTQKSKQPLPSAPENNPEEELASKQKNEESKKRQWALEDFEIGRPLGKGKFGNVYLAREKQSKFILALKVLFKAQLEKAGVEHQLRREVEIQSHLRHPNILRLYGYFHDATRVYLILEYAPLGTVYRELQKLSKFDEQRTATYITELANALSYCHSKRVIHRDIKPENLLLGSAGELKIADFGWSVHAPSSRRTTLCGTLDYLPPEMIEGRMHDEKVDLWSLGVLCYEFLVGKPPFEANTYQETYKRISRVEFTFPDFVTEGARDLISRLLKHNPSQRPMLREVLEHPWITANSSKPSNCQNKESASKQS
From the text: (§1) As part of our medicinal chemistry programme to discover selective inhibitors of Aurora-A,[12] we introduced the 1-benzyl-1H-pyrazol-4-yl moiety at C7 of the imidazo[4,5-b]pyridine scaffold to provide 7a (Table 1). We previously reported 1,3-dimethyl-1H-pyrazol-4-yl as a preferred substituent at the C2 position of the imidazo[4,5-b]pyridine scaffold[11] and this moiety was therefore incorporated into the design of 7a and analogues presented in this study. […] This in vitro profile prompted us to investigate this C7-pyrazole substituted imidazo[4,5-b]pyridine subseries in more detail. Firstly, we attempted to increase biochemical potency against Aurora-A, and also to improve microsomal stability.
(§2) [17] Aurora-A and Aurora-B IC50 values were determined by using a microfluidic assay which monitors the separation of a phosphorylated product from its substrate, as described in Ref. [12].

Aurora B = Aurora B (Homo sapiens, UniProt Q96GD4); assay: Aurora-B microfluidic kinase assay; conditions: biochemical; mean of two determinations or mean ±SD for n > 2
From the text: as §1, §2

[1] = Human liver microsomal stability; assay type: in vitro ADME; conditions: percentage of compound metabolised after a 30 min incubation, human liver microsomes
Protocol: [18] MLM and HLM microsomal stabilities were determined as described in Ref. [12].

[2] = system: SW620 human colon carcinoma cells; assay: SW620 cell growth inhibition; assay type: cell-based; conditions: 72 h incubation
From the text: as §1

[3] = system: HCT116 human colon carcinoma cells; assay: HCT116 cell growth inhibition; assay type: cell-based; conditions: 72 h incubation
From the text: as §1

BTK = BTK (Homo sapiens, UniProt Q06187); assay: Kinase selectivity profiling; assay type: biochemical; conditions: 1 µM, assay duplicates
Protocol: (§3) [20] Kinase selectivity profiling for compounds 7a, 7d, 14d and 14g was carried out at the International Centre for Protein Kinase Profiling, Division of Signal Transduction Therapy, University of Dundee.
(§4) Table S1: Kinase selectivity profiling of compounds 7a and 7d in a 102-kinase panel screened at a concentration of 1 µM.
(§5) Table S2: Kinase selectivity profiling of compounds 14d and 14g in a 105-kinase panel screened at a concentration of 1 µM.

CDK2-Cyclin A = CDK2-Cyclin A (Homo sapiens, UniProt P24941); assay: Kinase selectivity profiling; assay type: biochemical; conditions: 1 µM, assay duplicates
Protocol: as §3, §4, §5

EF2K = EF2K (Homo sapiens, UniProt O00418); assay: Kinase selectivity profiling; assay type: biochemical; conditions: 1 µM, assay duplicates
Protocol: as §3, §4, §5

GCK = GCK (Homo sapiens, UniProt Q12851); assay: Kinase selectivity profiling; assay type: biochemical; conditions: 1 µM, assay duplicates
Protocol: as §3, §4, §5

HIPK3 = HIPK3 (Homo sapiens, UniProt Q9H422); assay: Kinase selectivity profiling; assay type: biochemical; conditions: 1 µM, assay duplicates
Protocol: as §3, §4, §5

JAK2 = JAK2 (Homo sapiens, UniProt O60674); assay: Kinase selectivity profiling; assay type: biochemical; conditions: for JAK2 inhibition: 1 μM; for JAK2 % activity remaining: 1 µM, assay duplicates
JAK2, sequence (O60674 whole entry): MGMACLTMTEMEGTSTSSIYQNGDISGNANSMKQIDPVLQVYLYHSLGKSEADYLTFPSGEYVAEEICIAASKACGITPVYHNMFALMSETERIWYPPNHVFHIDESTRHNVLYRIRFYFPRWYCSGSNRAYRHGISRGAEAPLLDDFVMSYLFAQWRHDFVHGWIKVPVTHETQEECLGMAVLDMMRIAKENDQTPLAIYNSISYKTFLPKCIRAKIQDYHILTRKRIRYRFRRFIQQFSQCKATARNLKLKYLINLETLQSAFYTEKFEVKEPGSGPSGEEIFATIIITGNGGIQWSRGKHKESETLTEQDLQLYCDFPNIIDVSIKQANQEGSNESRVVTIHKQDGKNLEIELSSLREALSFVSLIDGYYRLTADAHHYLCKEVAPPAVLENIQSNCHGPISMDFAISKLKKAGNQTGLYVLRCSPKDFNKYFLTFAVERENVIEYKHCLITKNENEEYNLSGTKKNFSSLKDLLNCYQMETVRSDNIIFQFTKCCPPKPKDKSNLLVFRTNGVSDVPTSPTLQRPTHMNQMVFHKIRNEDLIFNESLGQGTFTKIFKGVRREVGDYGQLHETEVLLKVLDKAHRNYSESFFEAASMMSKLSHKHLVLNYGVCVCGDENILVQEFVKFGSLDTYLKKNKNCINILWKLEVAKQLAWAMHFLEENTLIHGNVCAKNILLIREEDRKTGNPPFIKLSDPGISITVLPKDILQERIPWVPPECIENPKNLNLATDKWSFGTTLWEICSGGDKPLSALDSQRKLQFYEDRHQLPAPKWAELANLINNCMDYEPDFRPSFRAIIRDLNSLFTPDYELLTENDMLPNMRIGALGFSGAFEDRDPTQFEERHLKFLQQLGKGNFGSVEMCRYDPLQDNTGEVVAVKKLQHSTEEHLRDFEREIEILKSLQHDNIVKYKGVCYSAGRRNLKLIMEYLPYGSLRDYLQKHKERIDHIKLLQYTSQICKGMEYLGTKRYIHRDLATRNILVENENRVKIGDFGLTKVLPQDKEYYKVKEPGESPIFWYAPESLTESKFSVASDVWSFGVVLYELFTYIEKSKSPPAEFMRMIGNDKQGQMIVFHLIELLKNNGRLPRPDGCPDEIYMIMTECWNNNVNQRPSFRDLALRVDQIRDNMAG
Protocol: as §3, §4, §5

LKB1 = LKB1 (Homo sapiens, UniProt Q15831); assay: Kinase selectivity profiling; assay type: biochemical; conditions: 1 µM, assay duplicates
Protocol: as §3, §4, §5

MARK1 = MARK1 (Homo sapiens, UniProt Q9P0L2); assay: Kinase selectivity profiling; assay type: biochemical; conditions: 1 µM, assay duplicates
Protocol: as §3, §4, §5

MARK3 = MARK3 (Homo sapiens, UniProt P27448); assay: Kinase selectivity profiling; assay type: biochemical; conditions: 1 µM, assay duplicates
Protocol: as §3, §4, §5

MELK = MELK (Homo sapiens, UniProt Q14680); assay: Kinase selectivity profiling; assay type: biochemical; conditions: 1 µM, assay duplicates
Protocol: as §3, §4, §5

MINK1 = MINK1 (Homo sapiens, UniProt Q8N4C8); assay: Kinase selectivity profiling; assay type: biochemical; conditions: 1 µM, assay duplicates
Protocol: as §3, §4, §5

MNK2 = MNK2 (Homo sapiens, UniProt Q9HBH9); assay: Kinase selectivity profiling; assay type: biochemical; conditions: 1 µM, assay duplicates
Protocol: as §3, §4, §5

MST2 = MST2 (Homo sapiens, UniProt Q13188); assay: Kinase selectivity profiling; assay type: biochemical; conditions: 1 µM, assay duplicates
Protocol: as §3, §4, §5

NUAK1 = NUAK1 (Homo sapiens, UniProt O60285); assay: Kinase selectivity profiling; assay type: biochemical; conditions: 1 µM, assay duplicates
Protocol: as §3, §4, §5

PAK4 = PAK4 (Homo sapiens, UniProt O96013); assay: Kinase selectivity profiling; assay type: biochemical; conditions: 1 µM, assay duplicates
Protocol: as §3, §4, §5

PAK5 = PAK5 (Homo sapiens, UniProt Q9P286); assay: Kinase selectivity profiling; assay type: biochemical; conditions: 1 µM, assay duplicates
Protocol: as §3, §4, §5

PIM1 = PIM1 (Homo sapiens, UniProt P11309); assay: Kinase selectivity profiling; assay type: biochemical; conditions: 1 µM, assay duplicates
Protocol: as §3, §4, §5

PIM2 = PIM2 (Homo sapiens, UniProt Q9P1W9); assay: Kinase selectivity profiling; assay type: biochemical; conditions: 1 µM, assay duplicates
PIM2, sequence (Q9P1W9 whole entry): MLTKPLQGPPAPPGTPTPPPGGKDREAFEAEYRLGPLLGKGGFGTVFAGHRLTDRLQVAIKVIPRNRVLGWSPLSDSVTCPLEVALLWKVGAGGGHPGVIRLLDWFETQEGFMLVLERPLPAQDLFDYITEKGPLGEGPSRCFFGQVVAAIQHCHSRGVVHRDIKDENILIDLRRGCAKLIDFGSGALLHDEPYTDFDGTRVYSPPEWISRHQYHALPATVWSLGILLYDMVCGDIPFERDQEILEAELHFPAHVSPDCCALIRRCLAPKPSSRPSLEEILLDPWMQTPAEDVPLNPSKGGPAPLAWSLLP
Protocol: as §3, §4, §5

PKCa = PKCa (Homo sapiens, UniProt P17252); assay: Kinase selectivity profiling; assay type: biochemical; conditions: 1 µM, assay duplicates
Protocol: as §3, §4, §5

PRAK = PRAK (Homo sapiens, UniProt Q8IW41); assay: Kinase selectivity profiling; assay type: biochemical; conditions: 1 µM, assay duplicates
PRAK, sequence (Q8IW41 whole entry): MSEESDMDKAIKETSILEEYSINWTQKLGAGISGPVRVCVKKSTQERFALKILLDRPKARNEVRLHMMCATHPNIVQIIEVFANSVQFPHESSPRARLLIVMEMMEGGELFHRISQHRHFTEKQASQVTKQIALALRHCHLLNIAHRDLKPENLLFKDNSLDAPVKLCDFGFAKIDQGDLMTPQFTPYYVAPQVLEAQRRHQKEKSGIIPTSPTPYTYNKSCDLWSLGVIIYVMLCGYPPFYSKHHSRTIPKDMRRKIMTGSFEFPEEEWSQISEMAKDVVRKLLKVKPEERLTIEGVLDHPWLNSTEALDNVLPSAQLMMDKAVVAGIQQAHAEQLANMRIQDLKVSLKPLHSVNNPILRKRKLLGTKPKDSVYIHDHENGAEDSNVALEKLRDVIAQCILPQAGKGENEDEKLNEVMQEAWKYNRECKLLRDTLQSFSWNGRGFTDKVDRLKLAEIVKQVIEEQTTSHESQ
Protocol: as §3, §4, §5

ROCK 2 = ROCK 2 (Homo sapiens, UniProt O75116); assay: Kinase selectivity profiling; assay type: biochemical; conditions: 1 µM, assay duplicates
ROCK 2, sequence (O75116 whole entry): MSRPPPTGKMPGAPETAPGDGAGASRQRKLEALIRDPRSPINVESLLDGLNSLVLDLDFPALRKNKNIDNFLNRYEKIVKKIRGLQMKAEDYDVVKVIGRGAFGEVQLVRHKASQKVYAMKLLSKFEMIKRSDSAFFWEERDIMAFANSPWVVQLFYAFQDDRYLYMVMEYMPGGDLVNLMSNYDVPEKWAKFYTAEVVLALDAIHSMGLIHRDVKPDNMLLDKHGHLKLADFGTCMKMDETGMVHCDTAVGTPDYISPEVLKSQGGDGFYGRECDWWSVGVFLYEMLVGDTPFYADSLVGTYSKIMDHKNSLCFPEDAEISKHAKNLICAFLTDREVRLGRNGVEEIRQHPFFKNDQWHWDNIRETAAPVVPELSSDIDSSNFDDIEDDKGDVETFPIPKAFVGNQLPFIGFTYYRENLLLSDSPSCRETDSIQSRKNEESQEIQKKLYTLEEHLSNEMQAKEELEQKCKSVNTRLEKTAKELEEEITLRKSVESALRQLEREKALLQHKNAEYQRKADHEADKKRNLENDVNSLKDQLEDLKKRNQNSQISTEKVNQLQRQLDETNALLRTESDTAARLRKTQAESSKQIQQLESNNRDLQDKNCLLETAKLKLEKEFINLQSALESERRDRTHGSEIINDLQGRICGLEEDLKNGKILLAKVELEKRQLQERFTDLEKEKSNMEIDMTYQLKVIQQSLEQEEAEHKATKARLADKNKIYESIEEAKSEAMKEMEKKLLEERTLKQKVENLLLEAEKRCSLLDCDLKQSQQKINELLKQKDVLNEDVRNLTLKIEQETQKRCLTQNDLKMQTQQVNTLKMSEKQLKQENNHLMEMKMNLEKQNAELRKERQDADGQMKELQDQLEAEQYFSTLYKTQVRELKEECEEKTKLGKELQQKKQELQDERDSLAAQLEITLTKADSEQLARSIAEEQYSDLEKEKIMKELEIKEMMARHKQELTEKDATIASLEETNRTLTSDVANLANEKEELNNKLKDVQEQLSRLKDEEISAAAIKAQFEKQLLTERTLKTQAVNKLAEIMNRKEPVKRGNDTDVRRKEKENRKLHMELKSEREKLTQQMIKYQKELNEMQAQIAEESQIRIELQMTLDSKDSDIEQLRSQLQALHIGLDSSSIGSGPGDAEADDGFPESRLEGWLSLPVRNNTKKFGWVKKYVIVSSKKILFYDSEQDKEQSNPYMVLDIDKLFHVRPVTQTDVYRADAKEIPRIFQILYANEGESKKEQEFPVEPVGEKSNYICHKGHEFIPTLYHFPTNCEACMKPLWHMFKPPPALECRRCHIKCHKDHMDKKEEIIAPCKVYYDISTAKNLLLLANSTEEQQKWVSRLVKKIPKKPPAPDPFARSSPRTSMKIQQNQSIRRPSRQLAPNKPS
Protocol: as §3, §4, §5

SmMLCK = SmMLCK (Homo sapiens, UniProt Q15746); assay: Kinase selectivity profiling; assay type: biochemical; conditions: 1 µM, assay duplicates
Protocol: as §3, §4, §5

VEG-FR = VEG-FR (Homo sapiens, UniProt P17948); assay: Kinase selectivity profiling; assay type: biochemical; conditions: for VEGFR inhibition: 1 μM; for VEG-FR % activity remaining: 1 µM, assay duplicates
VEG-FR, sequence (P17948 27-1338): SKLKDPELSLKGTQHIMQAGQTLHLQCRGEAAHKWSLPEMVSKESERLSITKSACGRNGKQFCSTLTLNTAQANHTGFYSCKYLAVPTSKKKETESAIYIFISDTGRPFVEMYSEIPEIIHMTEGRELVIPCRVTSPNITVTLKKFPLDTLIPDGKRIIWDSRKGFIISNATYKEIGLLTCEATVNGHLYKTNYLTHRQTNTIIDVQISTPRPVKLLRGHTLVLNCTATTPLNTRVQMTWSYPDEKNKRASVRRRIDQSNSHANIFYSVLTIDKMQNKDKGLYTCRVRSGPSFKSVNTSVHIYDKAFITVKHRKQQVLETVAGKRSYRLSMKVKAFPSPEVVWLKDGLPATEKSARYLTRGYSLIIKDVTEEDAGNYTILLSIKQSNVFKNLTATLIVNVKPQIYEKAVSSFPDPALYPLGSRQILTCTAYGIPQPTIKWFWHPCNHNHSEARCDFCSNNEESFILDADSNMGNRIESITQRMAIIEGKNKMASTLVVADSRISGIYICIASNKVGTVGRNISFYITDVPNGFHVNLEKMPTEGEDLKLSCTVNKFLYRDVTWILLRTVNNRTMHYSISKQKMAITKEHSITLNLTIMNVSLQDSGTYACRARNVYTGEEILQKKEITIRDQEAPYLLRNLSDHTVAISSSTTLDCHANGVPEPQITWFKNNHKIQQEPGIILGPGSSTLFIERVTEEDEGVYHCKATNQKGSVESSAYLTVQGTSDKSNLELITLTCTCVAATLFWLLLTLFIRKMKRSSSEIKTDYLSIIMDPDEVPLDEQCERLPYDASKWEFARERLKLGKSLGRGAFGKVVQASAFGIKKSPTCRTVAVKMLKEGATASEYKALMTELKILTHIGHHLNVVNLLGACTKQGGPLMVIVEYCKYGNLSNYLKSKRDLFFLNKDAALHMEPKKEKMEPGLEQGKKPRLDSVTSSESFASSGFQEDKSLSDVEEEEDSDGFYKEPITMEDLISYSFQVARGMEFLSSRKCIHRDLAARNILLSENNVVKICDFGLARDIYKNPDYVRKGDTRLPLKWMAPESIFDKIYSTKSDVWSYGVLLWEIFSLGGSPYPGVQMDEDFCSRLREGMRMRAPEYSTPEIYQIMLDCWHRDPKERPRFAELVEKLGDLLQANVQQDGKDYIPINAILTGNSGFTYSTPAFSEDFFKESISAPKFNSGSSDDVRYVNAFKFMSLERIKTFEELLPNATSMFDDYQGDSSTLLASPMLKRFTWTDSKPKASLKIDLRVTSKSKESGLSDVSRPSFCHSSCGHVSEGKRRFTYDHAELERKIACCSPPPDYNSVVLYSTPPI
Protocol: as §3, §4, §5

p38b MAPK = p38b MAPK (Homo sapiens, UniProt Q15759); assay: Kinase selectivity profiling; assay type: biochemical; conditions: 1 µM, assay duplicates
p38b MAPK, sequence (Q15759 whole entry): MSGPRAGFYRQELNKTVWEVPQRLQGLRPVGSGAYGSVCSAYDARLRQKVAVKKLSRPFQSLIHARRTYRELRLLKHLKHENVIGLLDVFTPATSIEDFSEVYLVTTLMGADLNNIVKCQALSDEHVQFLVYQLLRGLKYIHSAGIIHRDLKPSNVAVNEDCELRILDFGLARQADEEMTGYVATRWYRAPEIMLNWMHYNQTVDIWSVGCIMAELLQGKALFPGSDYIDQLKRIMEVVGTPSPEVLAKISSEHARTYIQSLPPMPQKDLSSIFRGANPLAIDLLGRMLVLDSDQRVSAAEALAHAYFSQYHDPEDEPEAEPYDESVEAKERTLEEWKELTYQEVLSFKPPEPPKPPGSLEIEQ
Protocol: as §3, §4, §5

p38d MAPK = p38d MAPK (Homo sapiens, UniProt O15264); assay: Kinase selectivity profiling; assay type: biochemical; conditions: 1 µM, assay duplicates
Protocol: as §3, §4, §5

p38g MAPK = p38g MAPK (Homo sapiens, UniProt P53778); assay: Kinase selectivity profiling; assay type: biochemical; conditions: 1 µM, assay duplicates
Protocol: as §3, §4, §5

Structure (SMILES)	IC50 (Aurora A) [nM]	IC50 (Aurora B) [nM]	HLM % met/30 min [1] [%]	GI50 [2] [nM]	GI50 [3] [nM]	BTK % activity remaining (BTK) [%]	CDK2-Cyclin A % activity remaining (CDK2-Cyclin A) [%]	EF2K % activity remaining (EF2K) [%]	GCK % activity remaining (GCK) [%]	HIPK3 % activity remaining (HIPK3) [%]	JAK2 inhibition (JAK2)	JAK2 % activity remaining (JAK2) [%]	LKB1 % activity remaining (LKB1) [%]	MARK1 % activity remaining (MARK1) [%]	MARK3 % activity remaining (MARK3) [%]	MELK % activity remaining (MELK) [%]	MINK1 % activity remaining (MINK1) [%]	MNK2 % activity remaining (MNK2) [%]	MST2 % activity remaining (MST2) [%]	NUAK1 % activity remaining (NUAK1) [%]	further results
Cc1cc(Cn2cc(-c3c(Cl)cnc4[nH]c(-c5cn(C)nc5C)nc34)cn2)no1 [Compound 14d]	35	75	37	350	340	33	1	102	40	49	≥ 80%	2	62	38	19	49	86	32	80	8	PAK4 % activity remaining (PAK4): 25%; PAK5 % activity remaining (PAK5): 41%; PIM1 % activity remaining (PIM1): 96%; PIM2 % activity remaining (PIM2): 91%; PKCa % activity remaining (PKCa): 83%; PRAK % activity remaining (PRAK): 100%; ROCK 2 % activity remaining (ROCK 2): 44%; SmMLCK % activity remaining (SmMLCK): 43%; VEGFR inhibition (VEG-FR): ≥ 80%; VEG-FR % activity remaining (VEG-FR): 7%; p38b MAPK % activity remaining (p38b MAPK): 91%; p38d MAPK % activity remaining (p38d MAPK): 41%; p38g MAPK % activity remaining (p38g MAPK): 36%
Cc1nn(C)cc1-c1nc2c(-c3cnn(Cc4ccccc4)c3)c(Cl)cnc2[nH]1 [Compound 7a]	212 ± 107	461 ± 147	43	180	150	46	1	94	22	9	greater than 80%	2	49	31	20	19	28	44	60	1	PAK4 % activity remaining (PAK4): 23%; PAK5 % activity remaining (PAK5): 36%; PIM1 % activity remaining (PIM1): 71%; PIM2 % activity remaining (PIM2): 86%; PKCa % activity remaining (PKCa): 63%; PRAK % activity remaining (PRAK): 83%; ROCK 2 % activity remaining (ROCK 2): 36%; SmMLCK % activity remaining (SmMLCK): 51%; VEGFR inhibition (VEG-FR): greater than 80%; VEG-FR % activity remaining (VEG-FR): 6%; p38b MAPK % activity remaining (p38b MAPK): 91%; p38d MAPK % activity remaining (p38d MAPK): 18%; p38g MAPK % activity remaining (p38g MAPK): 17%
